Reference: the NIST ThermoML archive (doi:10.1016/j.jct.2005.05.015)
± gives the expanded uncertainty stated by the source.

Details: Liquid, Twin ebulliometer

CCCCC [pentane]
Details	vapor or sublimation pressure [kPa]
309.32 K	101.73 ± 0.076
313.85 K	118.39 ± 0.083
320.2 K	145.3 ± 0.093
325.22 K	169.71 ± 0.11
330.84 K	200.67 ± 0.12
335.22 K	227.66 ± 0.13
339.51 K	256.78 ± 0.14
343.32 K	284.81 ± 0.16
346.78 K	312.35 ± 0.17
349.92 K	338.98 ± 0.18
353.48 K	371.25 ± 0.19
356.79 K	403.22 ± 0.21
360.01 K	436.34 ± 0.22
363.24 K	471.57 ± 0.23
366.37 K	507.7 ± 0.25
369.92 K	551.11 ± 0.27
377.19 K	648.59 ± 0.29
384.19 K	754.18 ± 0.34
392.52 K	895.85 ± 0.37
397.8 K	995.29 ± 0.41
402.59 K	1092.4 ± 0.44
406.87 K	1185.1 ± 0.47
412.57 K	1317.5 ± 0.5
416.13 K	1405.5 ± 0.53
417.87 K	1450 ± 0.55
420.09 K	1508.6 ± 0.57
423.75 K	1608.9 ± 0.59
424.62 K	1633.2 ± 0.6
427.09 K	1704.4 ± 0.62
430.44 K	1804.8 ± 0.65
430.68 K	1812 ± 0.65
433.61 K	1903.7 ± 0.68
437.57 K	2033.2 ± 0.71
440.81 K	2143.7 ± 0.74
443.59 K	2242.6 ± 0.77
446.65 K	2355.2 ± 0.8
449.18 K	2451.9 ± 0.83
451.9 K	2559.3 ± 0.85
451.99 K	2562.8 ± 0.85
454.33 K	2658.6 ± 0.88
455.99 K	2727.7 ± 0.89
